Square brackets hold non-standard residues; d marks the D form. Peptide text beside a SMILES is read from it. * marks the point of attachment. Dolaproine = CO[C@@H]([C@@H]1CCCN1)[C@@H](C)C(=O)O; Dil = CC[C@H](C)[C@H](NC)[C@@H](CC(=O)O)OC; X1 = C[C@@H](N*)[C@@H](O)c1ccccc1; NMeV = CN[C@H](C(=O)O)C(C)C
Key:
[1] = cited from earlier work
Excerpt: The PK profile of MMAE in plasma dropped rapidly, while concentrations in tissues were retained for a prolonged period of time. This could be because of the binding of MMAE to its intracellular target, tubulin. […] Since plasma and tissue concentration profiles were not parallel, plasma exposure ...

tubulin = settings: cited from earlier work
Excerpt: Table 1 A glossary of literature-derived and estimated parameters used for the MMAE PBPK model. | column: Value || Physiological parameters for mice were obtained from our previously published PBPK model. Radius of the tumor blood capillary ( Rcap ), average distance between two capillaries ( Rkrough ), tumor void volume for MMAE ( ε ), P, D, and efflux rate of MMAE from the cells ( kout ) were obtained from the literature.

[2] = PBPK model fitting and parameter estimation for MMAE; settings: PBPK model estimate (CV%), mice, 0.1 mg/kg i.v.
Excerpt: The PBPK model included 16 tissues and a tumor compartment, and all of them were connected via blood flow and arranged anatomically. The tissue compartments included blood, lung, heart, kidney, muscle, skin, liver, brain, adipose, thymus, bone, small intestine, large intestine, spleen, pancreas, and other (i.e., carcass). All the other tissues, except those mentioned, were lumped into the ‘other’ compartment. The arterial blood to each organ was delivered by the efferent blood supplied from the lung, which perfused to each organ and then converged into the blood compartment, which represents the venous pool. Venous blood returned from the small intestine, large intestine, spleen, and pancreas were delivered to the liver. For the intestines, spleen, and pancreas, blood was delivered to the liver via the hepatic portal vein and mixed with liver artery blood after leaving the tissues. The delivery of the blood from the blood compartment to the lung completed the circulation of the flow. Based on in vitro, preclinical, and clinical data, the elimination of MMAE was assumed to be predominantly through the CYP3A4/5-mediated metabolic pathway and biliary/fecal excretion. Limited renal excretion (<10%) of MMAE has been reported. Therefore, we assumed that MMAE was eliminated solely via hepatic clearance (CL) from the liver interstitial space.
Each tissue compartment was further divided into the vascular, endothelial cell, interstitial, and cellular sub-compartments, and vascular space was divided into plasma and blood cells, as shown in Figure 1b. We aimed to make the sub-compartment division the same as our previously published platform antibody PBPK model, and thus, one can easily connect MMAE and an antibody PBPK model to build an ADC PBPK model. The rapid distribution of MMAE between plasma, endothelial cells, and interstitial space was assumed, and thus, the distribution rate between these compartments was set as a value 1000 times higher than the value of blood flow in each tissue. […] The partitioning of MMAE to the blood cells or cellular space was characterized using the KP values. The calculated KP values were adjusted for the ratios of cellular space volume to total tissue volume by dividing KP values with the ratio in each tissue. […] Only free MMAE was assumed to diffuse through the cellular membrane, and thus, the fraction of unbound drug in blood cells or tissue cellular space ( fu,t ) was calculated using Equation (2). (2) fu,t=fu,p/KP,i,
Equations (3) and (4) describe blood cell and plasma concentrations of MMAE, respectively. Equations that described MMAE concentration in the liver (Equations (5)–(9)), lung (Equations (10)–(14)), a typical tissue (Equations (15)–(19)), and tumor (Equations (20)–(23)) are provided below. In these equations, Qplasmai and QBClung are plasma flow and blood cell flow to the tissue i. Vplasma and VBC are volumes of central plasma and blood cell compartments. Vplasmai , VBCi , Vendoi , VISi , and Vcellulari are volumes of vascular, blood cell, endosomal, interstitial, and cellular compartments for tissue i. Cplasma and CBC are MMAE concentration in systemic plasma and blood cell compartments. Cplasmai , CBCi , Cendoi , CISi , and Ccellulari are MMAE concentration in vascular, blood cell, endosomal, interstitial, and cellular compartments of tissue i. PSBC is the permeability coefficient for the blood cell sub-compartment.
Physiological parameters for mice were obtained from our previously published PBPK model. Radius of the tumor blood capillary ( Rcap ), average distance between two capillaries ( Rkrough ), tumor void volume for MMAE ( ε ), P, D, and efflux rate of MMAE from the cells ( kout ) were obtained from the literature. […]

[3] = cited from earlier work; remark: listed apart in the source
Description: There are some limitations of our study. First, only one dose level of MMAE was used to build the PBPK model. However, the current 0.1 mg/kg MMAE dose can be high enough to saturate the target, and thus, linear PK can be assumed. […] As more data at lower dose levels become available, the PBPK model can be further refined to elaborate the MMAE–tubulin interaction. Second, the PK profile of free M ...

[4] = mice, assumed from reported plasma protein binding; cited from earlier work
Excerpt: Table 1 A glossary of literature-derived and estimated parameters used for the MMAE PBPK model. | column: Value || Each tissue compartment was further divided into the vascular, endothelial cell, interstitial, and cellular sub-compartments, and vascular space was divided into plasma and blood cells, as shown in Figure 1b. We aimed to make the sub-compartment division the same as our previously published platform antibody PBPK model, and thus, one can easily connect MMAE and an antibody PBPK model to build an ADC PBPK model. The rapid distribution of MMAE between plasma, endothelial cells, and interstitial space was assumed, and thus, the distribution rate between these compartments was set as a valu ... || Plasma protein binding plays a vital role in tissue distribution of small molecule drugs. […] Based on the reported mice data, fu,p was assumed to be 0.2, and it was used as a concentration-independent parameter in the PBPK model. Of note, species-dependence of fraction unbound should be considered when further scaling up the current MMAE PBPK model to different species. Based on free hormone hypothesis, it was assumed that ...

[5] = Derivation of in vivo CLint (in vitro-in vivo extrapolation; NCA with well-stirred model); settings: mice, 0.1 mg/kg i.v.

## CC[C@H](C)[C@@H]([C@@H](CC(=O)N1CCC[C@H]1[C@H](OC)[C@@H](C)C(=O)N[C@H](C)[C@@H](O)c1ccccc1)OC)N(C)C(=O)[C@@H](NC(=O)[C@@H](NC)C(C)C)C(C)C [MMAE, Monomethyl auristatin E] (H-[NMeV]V[Dil][Dolaproine]-X1)
[1]
  half-life of MMAE, reported value: 5.7 h
tubulin; assumed
  koff, first-order dissociation rate constant between MMAE–tubulin complex: 0.000151 s⁻¹
tubulin; read-out: equilibrium dissociation rate (KD) of MMAE for free tubulin
  Kd: 291 nM
[2]
  CLint (liver intrinsic clearance): 137 (8.92) mL/h
[2]; blood cells
  PSblood (permeability-surface area coefficient): 0.105 (12.6) mL/h
[2]; bone
  PSbone (permeability-surface area coefficient): 0.568 (20.9) mL/h
[2]; brain
  PSbrain (permeability-surface area coefficient): 0.00825 (40.4) mL/h
[2]; fat
  PSfat (permeability-surface area coefficient): 0.588 (23.5) mL/h
[2]; heart
  PSheart (permeability-surface area coefficient): 1.47 (17.1) mL/h
[2]; kidney
  PSkidney (permeability-surface area coefficient): 14.2 (20.2) mL/h
[2]; liver
  PSliver (permeability-surface area coefficient): 49.2 (48.4) mL/h
[2]; lung
  PSlung (permeability-surface area coefficient): 2.47 (13.2) mL/h
[2]; muscle
  PSmuscle (permeability-surface area coefficient): 3.16 (21.1) mL/h
[2]; pancreas
  PSpancreas (permeability-surface area coefficient): 0.0657 (18.7) mL/h
[2]; skin
  PSskin (permeability-surface area coefficient): 0.681 (30.6) mL/h
[2]; spleen
  PSspleen (permeability-surface area coefficient): 0.457 (18.5) mL/h
[3]; rats, single dose
  dose that induced mortality: > 0.116 mg/kg
[3]; rats
  single-dose no-observed-adverse-effect level (NOAEL): 0.01 mg/kg
[3]; ref in-house data
  contribution of free MMAE to tissue total MMAE exposure following ADC administration: < 20%
[4]
  fu,p, fraction unbound in plasma: 0.8
[5]
  CLint derived from NCA analysis of in vivo PK data: 150 mL/h
